# Source: patent publication US6599514B1, “Antifungal composition” (Syngenta Limited, priority 1997, dated 2003)
# How the values were obtained:
# Type in all cases: cell-based
# Fusarium culmorum = assay: Antifungal microplate growth inhibition assay (MIC); details: 48 h, 24° C.; for MIC / concentration required alone to give strong growth inhibition: medium B (½ PDB + 1 mM CaCl2 + 50 mM KCl), agent used alone
# Method: (§1) Unless otherwise stated the incubation was carried out at 24° C. for 48 hours. Percentages of fungal growth were estimated by microscopic examination of the microplates after the incubation period. The control microcultures were used as a reference in order to estimate fungal growth inhibition.
# (§2) The antifungal potency of the purified proteins was assessed on different food spoilage fungi using the assay described above. Growth of fungi, collection and harvest of fungal spores were done as previously described (Broekaert et al., 1990, FEMS Microbiol. Lett., 69: 55-60).
# (§3) The percentage growth inhibition was estimated by microscopic inspection of the microtitre plates, taking the microculture control with no antifungal protein added as a reference for normal fungal growth.
# (§4) The Ib-AMP1 pure protein was added to the test solution and mixed with the fungal spore suspension as described above. Following inoculation the plates were incubated at 24° C. for 48 hours. […] A summary of the results obtained is shown on table 14.
# Penicillium chrysogenum = assay: Antifungal microplate growth inhibition assay (MIC, growth % of control); details: for Fungal growth as compared to the control: individual application; for MIC / concentration required alone to give strong growth inhibition: medium B (½ PDB + 1 mM CaCl2 + 50 mM KCl), agent used alone
# Method: as §1, §2, §3
# (§5) Following inoculation the plates were incubated at 24° C. for 48 hours.
# (§6) Chitinase-I and β-1,3-glucanase were extracted and purified from tobacco according to the method published by Sela-Buurlage, M. B., et al., in 1993 (Plant Physiol. 101, 857-863). The purified enzymes were mixed in a 1:1 ratio and then tested for antifungal activity against the food spoilage fungal strains Penicillium roquefortii and P. chrysogenum. The antifungal assays were carried out as described above. Assessment of growth inhibition was carried out by microscopic examination after 48 and 96 hours incubation at 24° C.
# (§7) In Colby's formula, E1=X1Y1/100, X1 and Y1 represent growth as a percentage of control with compound A (dosage p) and compound B (dosage q), respectively. E1 is the i5 expected growth as a percentage of control with the mixture A and B (dosage p+q). […] Comparison of the observed and expected percent inhibition responses (Eobs/Eexp) indicates synergism (Eobs/Eexp>1) or antagonism (Eobs/Eexp<1).
# Penicillium roquefortii = assay: as above; details: for MIC / concentration required alone to give strong growth inhibition: medium B (½ PDB + 1 mM CaCl2 + 50 mM KCl), agent used alone; for Fungal growth as compared to the control: individual application
# Method: as §1, §2, §3, §5, §6, §7
# Alternaria sp. = assay: Antifungal microplate growth inhibition assay (MIC); details: 48 h, 24° C.; for MIC / concentration required alone to give strong growth inhibition: medium B (½ PDB + 1 mM CaCl2 + 50 mM KCl), agent used alone
# Method: as §1, §2, §3, §5
# Cladosporium sp. = assay: as above; details: 48 h, 24° C.; for MIC / concentration required alone to give strong growth inhibition: medium B (½ PDB + 1 mM CaCl2 + 50 mM KCl), agent used alone
# Method: as §1, §2, §3, §5
# Trichoderma harzianum = assay: as above; details: 48 h, 24° C.; for MIC / concentration required alone to give strong growth inhibition: medium B (½ PDB + 1 mM CaCl2 + 50 mM KCl), agent used alone
# Method: as §1, §2, §3, §5
# Mucor plumbeus = assay: as above; details: medium B (½ PDB + 1 mM CaCl2 + 50 mM KCl), 48 h, 24° C., agent used alone
# [1] = test system: range of food spoilage strains; assay: Antifungal microplate assay, statements on the whole range of strains; details: 200 ppm (maximum concentration tested), medium B, 48 hours, 24° C.
# Method: as §1
# The following fungal strains were used: Fusarium culmorum, Penicillium chrysogenum, Penicillium roquefortii, Penicillium commune, Penicillium nalgiovense, Mucor plumbeus, Scopulariopsis brevicaulis, Aspergillus versicolor, Alternaria sp., Cladosporium sp. and Trichoderma harzianum.
# as §3, §4
# Penicillium commune = assay: Antifungal microplate growth inhibition assay (MIC); details: medium B (½ PDB + 1 mM CaCl2 + 50 mM KCl), 48 h, 24° C., agent used alone
# Method: Unless otherwise stated the incubation was carried out at 24° C. for 48 hours. Percentages of fungal growth were estimated by microscopic examination of the microplates after the incubation period. The control microcultures were used as a reference in order to estimate fungal growth inhibition. […] The antifungal potency of the purified proteins was assessed on different food spoilage fungi using the assay described above. Growth of fungi, collection and harvest of fungal spores were done as previously described (Broekaert et al., 1990, FEMS Microbiol. Lett., 69: 55-60). […] The percentage growth inhibition was estimated by microscopic inspection of the microtitre plates, taking the microculture control with no antifungal protein added as a reference for normal fungal growth.
# [2] = medium B, 96 hours, 24° C., used alone
# [3] = medium A (½ PDB), protein alone
# [4] = medium A (½ PDB), 48 h, 24° C., protein alone
molecule,measurement,setting,value
"COc1ccc(O)c(C(C)(C)C)c1 [BHA, butylated hydroxyanisole]",MIC / concentration required alone to give strong growth inhibition,Fusarium culmorum,>200 ppm
same,Fungal growth as compared to the control,"Penicillium chrysogenum; 50 ppm, medium B",99%
same,MIC / concentration required alone to give strong growth inhibition,"Penicillium chrysogenum; 48 h, 24° C.",>200 ppm
same,MIC / concentration required alone to give strong growth inhibition,"Penicillium roquefortii; 48 h, 24° C.",>200 ppm
same,MIC / concentration required alone to give strong growth inhibition,Alternaria sp.,>200 ppm
same,MIC / concentration required alone to give strong growth inhibition,Cladosporium sp.,>200 ppm
same,MIC / concentration required alone to give strong growth inhibition,Trichoderma harzianum,>200 ppm
same,MIC / concentration required alone to give strong growth inhibition,Mucor plumbeus,>200 ppm
same,Antifungal activity of BHA added alone,[1],no antifungal activity was observed
"O=C([O-])CN(CCN(CC(=O)[O-])CC(=O)[O-])CC(=O)[O-].[Ca+2].[Na+].[Na+] [CaNa2EDTA, calcium disodium EDTA]",MIC / concentration required alone to give strong growth inhibition,"Penicillium chrysogenum; 48 h, 24° C.",>150 ppm
same,MIC / concentration required alone to give strong growth inhibition,"Penicillium roquefortii; 48 h, 24° C.",>150 ppm
O=C(O)CN(CCN(CC(=O)O)CC(=O)O)CC(=O)O [EDTA],MIC / concentration required alone to give strong growth inhibition,"Penicillium chrysogenum; 48 h, 24° C.",200 ppm
same,MIC / concentration required alone to give strong growth inhibition,"Penicillium roquefortii; 48 h, 24° C.",>200 ppm
same,MIC / concentration required alone to give strong growth inhibition,Penicillium commune,>200 ppm
"C/C=C/C=C/C(=O)[O-].[K+] [K sorbate, potassium sorbate]","Fungal growth inhibition, % of the controls","Penicillium chrysogenum; K sorbate alone, 96 hours incubation, medium B, strain not told apart from P. roquefortii",10-20%
same,MIC / concentration required alone to give strong growth inhibition,"Penicillium chrysogenum; 48 h, 24° C.",1000 ppm
same,Concentration required alone to give strong growth inhibition,Penicillium chrysogenum; [2],">2,000 ppm"
same,"Fungal growth inhibition, % of the controls","Penicillium roquefortii; K sorbate alone, 96 hours incubation, medium B, strain not told apart from P. chrysogenum",10-20%
same,Fungal growth as compared to the control,"Penicillium roquefortii; 500 ppm, medium B",90%
same,MIC / concentration required alone to give strong growth inhibition,"Penicillium roquefortii; 48 h, 24° C.",1500 ppm
same,Concentration required alone to give strong growth inhibition,Penicillium roquefortii; [2],">2,000 ppm"
"CC(O)C(=O)O (stereo not shown) [Lactic acid, lactic acid]",Fungal growth as compared to the control,"Penicillium chrysogenum; 2500 ppm, medium B",90%
same,MIC / concentration required alone to give strong growth inhibition,"Penicillium chrysogenum; 48 h, 24° C.","20,000 ppm"
"O=C([O-])CN(CCN(CC(=O)O)CC(=O)O)CC(=O)[O-].[Na+].[Na+] [Na2H2EDTA, disodium dihydrogen EDTA]",Fungal growth as compared to the control,"Penicillium chrysogenum; 75 ppm, medium B",90%
same,MIC / concentration required alone to give strong growth inhibition,"Penicillium chrysogenum; 48 h, 24° C.",>150 ppm
"O=C([O-])c1ccccc1.[Na+] [Na benzoate, sodium benzoate]",Fungal growth as compared to the control,"Penicillium chrysogenum; 500 ppm, medium B",99%
same,MIC / concentration required alone to give strong growth inhibition,"Penicillium chrysogenum; 48 h, 24° C.",6000 ppm
"Rs-AFP2: purified antifungal protein of Raphanus sativus (radish) seeds, described in WO93/05153 (QKLCQRPSGTWSGVCGNNNACKNQCIRLEKARHGSCNYVFPAHKCICYFPC; UniProt P30230 30-80, looked up)",MIC (minimum concentration giving more than 90% growth inhibition),Fusarium culmorum; [3],3.1 ppm
same,MIC / concentration required alone to give strong growth inhibition,Fusarium culmorum,12.5 ppm
same,MIC (minimum concentration giving more than 90% growth inhibition),Penicillium chrysogenum; [4],>200 ppm
same,MIC / concentration required alone to give strong growth inhibition,"Penicillium chrysogenum; 48 h, 24° C.",>200 ppm
same,Fungal growth as compared to the control,"Penicillium roquefortii; 3.1 ppm, medium B",100%
same,MIC (minimum concentration giving more than 90% growth inhibition),Penicillium roquefortii; [4],3 ppm
same,MIC / concentration required alone to give strong growth inhibition,"Penicillium roquefortii; 48 h, 24° C.",25 ppm
same,MIC (minimum concentration giving more than 90% growth inhibition),Alternaria sp.; [3],6.25 ppm
same,MIC / concentration required alone to give strong growth inhibition,Alternaria sp.,200 ppm
same,MIC (minimum concentration giving more than 90% growth inhibition),Cladosporium sp.; [3],100 ppm
same,MIC / concentration required alone to give strong growth inhibition,Cladosporium sp.,>200 ppm
same,MIC (minimum concentration giving more than 90% growth inhibition),Trichoderma harzianum; [3],200 ppm
same,MIC / concentration required alone to give strong growth inhibition,Trichoderma harzianum,>200 ppm
